Experimental data reported in patent US10287288B2, “Factor XIa macrocyclic inhibitors bearing alkyl or cycloalkyl P2' moieties” (BRISTOL-MYERS SQUIBB COMPANY, priority 2015, dated 2019).
Read-outs that look alike come from different tables or passages of the source.

Tests used:
[1] = rcm bond
[2] = target: T1, purified human Factor XIa (Homo sapiens, UniProt P03951); experiment: Factor XIa inhibition assay (chromogenic substrate hydrolysis, Ki); format: biochemical; conditions: substrate S-2366, pH 7.4
T1 construct: purchased Haematologic Technologies

[3] = target: T2, purified human plasma kallikrein (Homo sapiens, UniProt P03952); experiment: Plasma kallikrein inhibition assay (chromogenic substrate hydrolysis, Ki); format: biochemical; conditions: substrate S-2302, pH 7.5
T2 construct: Plasma prekallikrein is a zymogen of a trypsin-like serine protease; purchased Enzyme Research Laboratories
T2 sequence (P03952 391-638 limits assumed): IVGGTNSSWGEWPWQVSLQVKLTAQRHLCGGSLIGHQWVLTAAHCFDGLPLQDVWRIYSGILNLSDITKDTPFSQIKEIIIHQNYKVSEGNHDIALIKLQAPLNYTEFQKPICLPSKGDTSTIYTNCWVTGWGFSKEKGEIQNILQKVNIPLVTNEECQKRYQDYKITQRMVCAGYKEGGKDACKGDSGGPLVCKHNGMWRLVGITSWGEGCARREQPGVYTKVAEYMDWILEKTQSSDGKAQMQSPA
T2 sequence (P03952 20-390 partner limits assumed): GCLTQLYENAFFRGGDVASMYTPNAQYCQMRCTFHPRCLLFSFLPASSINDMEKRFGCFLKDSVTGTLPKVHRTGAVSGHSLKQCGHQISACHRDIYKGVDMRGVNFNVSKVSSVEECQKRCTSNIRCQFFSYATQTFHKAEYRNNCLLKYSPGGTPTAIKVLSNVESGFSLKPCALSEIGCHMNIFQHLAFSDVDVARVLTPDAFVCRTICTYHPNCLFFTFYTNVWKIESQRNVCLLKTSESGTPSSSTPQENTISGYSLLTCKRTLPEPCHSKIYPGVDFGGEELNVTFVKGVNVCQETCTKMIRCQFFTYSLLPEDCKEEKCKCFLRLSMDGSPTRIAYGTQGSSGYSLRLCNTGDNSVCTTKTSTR

T1 sequence (P03951 388-625 limits assumed): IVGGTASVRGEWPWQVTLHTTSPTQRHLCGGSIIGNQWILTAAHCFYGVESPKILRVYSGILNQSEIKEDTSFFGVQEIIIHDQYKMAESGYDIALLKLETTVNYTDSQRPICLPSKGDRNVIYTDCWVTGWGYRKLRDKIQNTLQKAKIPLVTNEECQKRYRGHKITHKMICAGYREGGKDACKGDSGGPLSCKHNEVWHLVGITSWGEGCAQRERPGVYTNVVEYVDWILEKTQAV
T1 sequence (P03951 19-387 partner limits assumed): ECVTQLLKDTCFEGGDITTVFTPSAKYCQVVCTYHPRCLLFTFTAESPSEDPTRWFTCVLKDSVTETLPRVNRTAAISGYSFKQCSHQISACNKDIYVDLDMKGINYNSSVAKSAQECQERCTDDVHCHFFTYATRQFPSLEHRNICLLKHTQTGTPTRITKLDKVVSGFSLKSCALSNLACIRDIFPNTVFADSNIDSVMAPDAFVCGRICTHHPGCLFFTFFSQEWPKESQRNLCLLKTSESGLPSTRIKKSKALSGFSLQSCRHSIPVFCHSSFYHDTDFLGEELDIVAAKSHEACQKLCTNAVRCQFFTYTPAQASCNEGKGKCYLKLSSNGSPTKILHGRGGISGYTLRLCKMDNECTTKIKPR

| Structure (SMILES) | Ki [2] [nM] | Ki [3] [nM] | further results |
| --- | --- | --- | --- |
| CC(C)(C)OC(=O)N[C@H]1CC=CCCNC(=O)[C@@H]2C[C@@H]2c2ccnc1c2 |  |  | ring closure, isolated yield ([1]; from C=CCCNC(=O)[C@@H]1C[C@@H]1c1ccnc([C@H](CC=C)NC(=O)OC(C)(C)C)c1, 13-membered ring, Grubbs II (0.2 eq)/pTsOH, DCM, 4.7 mM, 40.0 °C, 2.0 h): 65% |
| COC(=O)[C@H]1Cc2cccc(c2)[C@@H](NC(=O)OCc2ccccc2)C/C=C/[C@@H](C)C(=O)N1 |  |  | ring closure, isolated yield ([1]; from C=CC[C@H](NC(=O)OCc1ccccc1)c1cccc(C[C@@H](NC(=O)[C@H](C)C=C)C(=O)OC)c1, 12-membered ring, Grubbs II (0.2 eq), microwave 45 min, DCE, 9.8 mM, 120.0 °C, 0.75 h): 53.2% |
| C[C@@H]1/C=C/C[C@H](NC(=O)OC(C)(C)C)c2cc(ccn2)C(C)(C)CNC1=O |  |  | ring closure, isolated yield ([1]; from C=CC[C@H](NC(=O)OC(C)(C)C)c1cc(C(C)(C)CNC(=O)[C@H](C)C=C)ccn1, 12-membered ring, Grubbs II (0.4 eq), microwave 30 min, DCE, 49.8 mM, 120.0 °C, 0.5 h): 43% |
| C[C@@H]1/C=C/C[C@H](NC(=O)OCc2ccccc2)c2cccc(c2)C[C@H](CC#N)NC1=O |  |  | ring closure, isolated yield ([1]; from C=CC[C@H](NC(=O)OCc1ccccc1)c1cccc(C[C@H](CC#N)NC(=O)[C@H](C)C=C)c1, 12-membered ring, Grubbs II (0.2 eq), microwave 30 min, DCE, 8.5 mM, 120.0 °C, 0.5 h): 56.2% |
| CC(=O)N1CCCC2NC(=O)[C@H](C)CCC[C@H](n3cnc(-c4c(-n5cc(Cl)nn5)ccc(Cl)c4F)cc3=O)c3cccc(c3)C21 (single isomer, unassigned) [Example 25] | 1420 |  |  |
| CC(=O)N1CCCC2NC(=O)[C@H](C)CCC[C@H](n3cnc(-c4c(-n5cc(Cl)nn5)ccc(Cl)c4F)cc3=O)c3cccc(c3)C21 (single isomer, unassigned) [Example 26] | 120 | 6970 |  |
| C[C@@H]1CCC[C@H](n2cnc(-c3cc(Cl)ccc3-n3cc(C(F)(F)F)nn3)cc2=O)c2cccc(c2)C2C(CCCN2C)NC1=O (single isomer, unassigned) [Example 27] | < 5 | 409 |  |
| C[C@@H]1CCC[C@H](n2cnc(-c3cc(Cl)ccc3-n3cc(C(F)(F)F)nn3)cc2=O)c2cccc(c2)C2C(CCCN2C)NC1=O (single isomer, unassigned) [Example 28] | 1130 | 11200 |  |
| COC(=O)[C@H]1Cc2cccc(c2)[C@@H](n2cnc(-c3cc(Cl)ccc3-n3cc(Cl)nn3)cc2=O)CCC[C@@H](C)C(=O)N1 [Example 1, methyl (3R,6R,10S)-10-{4-[5-chloro-2-(4-chloro-1H-1,2,3-triazol-1-yl)phenyl]-6-oxo-1,6-dihydropyrimidin-1-yl}-6-methyl-5-oxo-4-azabicyclo[9.3.1]pentadeca-1(15),11,13-triene-3-carboxylate] | 53 |  |  |
| C[C@@H]1CCC[C@H](n2cnc(-c3cc(Cl)ccc3-n3cc(C(F)(F)F)nn3)cc2=O)c2cccc(c2)C[C@H](CO)NC1=O [Example 2, (3R,6R,10S)-10-(4-{5-chloro-2-[4-(trifluoromethyl)-1H-1,2,3-triazol-1-yl]phenyl}-6-oxo-1,6-dihydropyrimidin-1-yl)-3-(hydroxymethyl)-6-methyl-4-azabicyclo[9.3.1]pentadeca-1(15),11,13-trien-5-one] | 445 |  |  |
| CNC(=O)OC[C@H]1Cc2cccc(c2)[C@@H](n2cnc(-c3cc(Cl)ccc3-n3cc(C(F)(F)F)nn3)cc2=O)CCC[C@@H](C)C(=O)N1 [Example 3, [(3R,6R,10S)-10-(4-{5-chloro-2-[4-(trifluoromethyl)-1H-1,2,3-triazol-1-yl]phenyl}-6-oxo-1,6-dihydropyrimidin-1-yl)-6-methyl-5-oxo-4-azabicyclo[9.3.1]pentadeca-1(15),11,13-trien-3-yl]methyl N-methylcarbamate] | 109 |  |  |
| COC(=O)NCC[C@H]1Cc2cccc(c2)[C@@H](n2cnc(-c3cc(Cl)ccc3-n3cc(C(F)(F)F)nn3)cc2=O)CCC[C@@H](C)C(=O)N1 [Example 4, methyl N-{2-[(3R,6R,10S)-10-(4-{5-chloro-2-[4-(trifluoromethyl)-1H-1,2,3-triazol-1-yl]phenyl}-6-oxo-1,6-dihydropyrimidin-1-yl)-6-methyl-5-oxo-4-azabicyclo[9.3.1]pentadeca-1(15),11,13-trien-3-yl]ethyl}carbamate] | 130 | 8270 |  |
| C[C@@H]1CCC[C@H](n2cnc(-c3cc(Cl)ccc3-n3cc(C(F)(F)F)nn3)cc2=O)c2cccc(c2)C[C@H](CC#N)NC1=O [Example 5, 2-[(3R,6R,10S)-10-(4-{5-chloro-2-[4-(trifluoromethyl)-1H-1,2,3-triazol-1-yl]phenyl}-6-oxo-1,6-dihydropyrimidin-1-yl)-6-methyl-5-oxo-4-azabicyclo[9.3.1]pentadeca-1(15),11,13-trien-3-yl]acetonitrile] | 284 | 4210 |  |
| Cc1c(C(=O)N[C@H]2CCC[C@@H](C)C(=O)N[C@@H](CC#N)Cc3cccc2c3)ncn1-c1cccc(Cl)c1F [Example 6, 1-(3-chloro-2-fluorophenyl)-N-[(3R,6R,10S)-3-(cyanomethyl)-6-methyl-5-oxo-4-azabicyclo[9.3.1]pentadeca-1(15),11,13-trien-10-yl]-5-methyl-1H-imidazole-4-carboxamide] | 986 | 6200 |  |
| COC(=O)NCC[C@@H]1Cc2cccc(c2)[C@@H](n2cnc(-c3cc(Cl)ccc3-n3cc(C(F)(F)F)nn3)cc2=O)CCC[C@@H](C)C(=O)N1 [Example 8, methyl N-{2-[(3S,6R,10S)-10-(4-{5-chloro-2-[4-(trifluoromethyl)-1H-1,2,3-triazol-1-yl]phenyl}-6-oxo-1,6-dihydropyrimidin-1-yl)-6-methyl-5-oxo-4-azabicyclo[9.3.1]pentadeca-1(15),11,13-trien-3-yl]ethyl}carbamate] | ≤ 5 | 1790 |  |
| C[C@@H]1CCC[C@H](n2cnc(-c3cc(Cl)ccc3-n3cc(C(F)(F)F)nn3)cc2=O)c2cccc(c2)C[C@@H](CC#N)NC1=O [Example 9, 2-[(3S,6R,10S)-10-(4-{5-chloro-2-[4-(trifluoromethyl)-1H-1,2,3-triazol-1-yl]phenyl}-6-oxo-1,6-dihydropyrimidin-1-yl)-6-methyl-5-oxo-4-azabicyclo[9.3.1]pentadeca-1(15),11,13-trien-3-yl]acetonitrile] | 5 | 1290 |  |
| O=C1NCCCCC[C@H](n2cnc(-c3cc(Cl)ccc3-n3cc(Cl)nn3)cc2=O)c2cc(ccn2)[C@H]2C[C@@H]12 [Example 31, (2S,4R,12S)-12-{4-[5-Chloro-2-(4-chloro-1H-1,2,3-triazol-1-yl)phenyl]-6-oxo-1,6-dihydropyrimidin-1-yl}-6,14-diazatricyclo[11.3.1.0^2,^4]heptadeca-1(17),13,15-trien-5-one] | 12.7 | 81.4 |  |
| O=C1CCCc2ccnc(c2)[C@@H](n2cnc(-c3cc(Cl)ccc3-n3cc(Cl)nn3)cc2=O)CCCCCN1 [Example 32, (12S)-12-{4-[5-Chloro-2-(4-chloro-1H-1,2,3-triazol-1-yl)phenyl]-6-oxo-1,6-dihydropyrimidin-1-yl}-6,14-diazabicyclo[11.3.1]heptadeca-1(17),13,15-trien-5-one] | 27.8 | 1890 |  |
| O=C1NCC/C=C/C[C@H](n2cnc(-c3cc(Cl)ccc3-n3cc(Cl)nn3)cc2=O)c2cc(ccn2)[C@H]2C[C@@H]12 [Example 33, (2S,4R,9E,12S)-12-{4-[5-Chloro-2-(4-chloro-1H-1,2,3-triazol-1-yl)phenyl]-6-oxo-1,6-dihydropyrimidin-1-yl}-6,14-diazatricyclo[11.3.1.0^2,^4]heptadeca-1(17),9,13,15-tetraen-5-one] | 355 | 3610 |  |
| O=C1NCCCCC[C@H](n2cnc(-c3cc(Cl)ccc3-n3cc(Cl)nn3)cc2=O)c2cc(ccn2)[C@@H]2C[C@H]12 [Example 34, (2R,4S,12S)-12-{4-[5-Chloro-2-(4-chloro-1H-1,2,3-triazol-1-yl)phenyl]-6-oxo-1,6-dihydropyrimidin-1-yl}-6,14-diazatricyclo[11.3.1.0^2,^4]heptadeca-1(17),13,15-trien-5-one] | 96 | 3100 |  |
